In publication PMC11952641, “A Novel D-peptide modulates DCLK1 Gelsolin interactions, reducing PDAC tumor growth” (Research Square, 2025):
One block for each molecule: values may come before it. Non-standard residues stand in square brackets, D forms with d. Residues, ends and D or L forms follow the SMILES beside them.

Assays:
DCLK1 isoform 4 [1] = assay: SPR binding to DCLK1 isoform 4; set-up: species or system human; conditions: DCLK1 isoform 4 binding to Gelsolin, Fig. 3F
Procedure: (§1) Purification of human DCLK1 isoform 4 was performed at the University of Oklahoma Protein Production and Characterization Core Facility (Norman, OK) using an E. coli strain BL21(DE3) pLPP containing the pET19-DCLK1 isoform 4 plasmid. For Bio-layer Interferometry (BLI) experiments, a C-terminal DCLK1 isoform 2/4 His-tagged protein was used (NovoPro, Shanghai, China). All His-tagged proteins were dialyzed using PBS/glycerol to remove imidazole.

DCLK1 isoform 4 [2] = assay: ELISA: pGSN binding to DCLK1 isoform 4; set-up: species or system human; conditions: 1% gelatin blocking, RT, 450 nm, Fig. S2
Procedure: as §1
(§2) Polystyrene microtitre Immulon 2HB plate was coated with freshly prepared (400 ng/50 ml) DCLK1 isoform 4 ([…]) in 0.1 M NaHCO3, pH 8.6, overnight at 4C. After blocking with 1% gelatin in TTBS at RT, different concentrations of gelsolin or FGF19 were added (2 mg/50ul/well, 1 mg/well, 0.5 mg/well, and 0.25 mg/well at […], proteins diluted in TTBS), and incubated at RT. To study the competitive ability of peptides, we used 20 mg/well of either D-peptide 1, D-peptide 3, D-peptide 5, or the C-terminal peptide antigen for the mAb CBT-15. After incubation at RT, plates were washed with TTBS, and bound gelsolin or FGF19 was detected. […] Detection was by alkaline phosphatase-conjugated goat anti-mouse IgG (ab97020; Abcam, Waltham, MA) followed by 1-STEP NBT/BCIP substrate (#34042; ThermoFisher Scientific, Waltham, MA) and quantified at 450 nm on a microplate reader.

DCLK1 isoform 4 [3] = assay: ELISA: FGF19 binding to DCLK1 isoform 4; set-up: species or system human; conditions: RT, 450 nm, Fig. 3H
Procedure: as §1, §2

DCLK1 isoform 4 / CBT-15 = assay: Competition assay: CBT-15 binding to DCLK1 isoform 4; set-up: species or system human; conditions: Fig. 1D, mean ± SEM, *p < 0.01
[4] = tested on: Capan-1 pancreatic cancer cells; assay: Colony formation assay, Capan-1; format: cell-based; conditions: Fig. 2B, blinded study
DCLK1 isoform 1 = assay: Cross-reactivity to DCLK1 isoform 1; format: binding, human
DCLK1 isoform 4-pGSN = assay: ELISA: effect of peptides on DCLK1-Gelsolin PPI; format: binding, human; conditions: peptide 20 mg/well (so in the source), pGSN 2 μg/ml, Fig. 3H
Procedure: as §1, §2

[5] = tested on: AsPC-1 pancreatic cancer cells; assay: Colony formation assay, AsPC-1; format: cell-based; conditions: Fig. 2A, blinded study
[6] = target: T1, DCLK1 isoform 4 (human His-tagged DCLK1 C-terminal recombinant protein) (Homo sapiens, UniProt O15075); assay: BLI evaluation of D-peptide binding to DCLK1 NKEBD; conditions: DCLK1 isoform 4 immobilized on biosensor, PBS/0.05%Tween20/1%DMSO, from 30 μM in a 1:3 series
T1 sequence (O15075 687-740 limits assumed): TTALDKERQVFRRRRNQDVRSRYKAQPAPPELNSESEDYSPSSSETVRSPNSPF
Procedure: as §1
Human His-tagged DCLK1 C-terminal recombinant protein from NovoPro was used. Binding to the sensor was carried out in PBS/0.05%Tween20/1%DMSO. Response is measured as a nm shift in the interference pattern and is proportional to the number of molecules bound to the biosensor’s surface. Initially, all peptides were tested at 5 and 30 μM. The top binders were tested again with eight different concentrations, starting at 30 μM and diluted in a 1:3 series to determine the dissociation constant (KD).

DCLK1 isoform 4 [7] = assay: D-peptide library screen for binding to DCLK1 isoform 4, excluding isoform 1 binders; set-up: species or system human; conditions: bead library screen, biotin-labeled DCLK1 isoform 4
Procedure: An aliquot from each sub-library, containing approximately 1000 beads, was added to a well of a 96-well polystyrene multi-well plate. From 1.5 to 2 ml of Superblock (Pierce Chemical Company, Rockford, IL.) reagent, 0.1% gelatin, or 1%(w/v) bovine serum albumin (BSA) in phosphate-buffered saline (PBS), pH 7.4, was added to each well, and the plates were incubated for one to two hours at room temperature (RT), with periodic or continuous mixing by gentle rocking. Purified DCLK1 isoform 4 protein was labeled with biotin using the biotinylating reagent NHS-LC-biotin (Pierce Chemical Company) according to the supplier’s instructions. Biotin-labeled protein was detected using AP-conjugated to neutravidin (Pierce Chemical Company) incubated with the beads for 30 minutes, after which the beads were washed three times with a Tris-buffered saline solution (pH 7.5), with the second wash being left in contact with the beads for 30 minutes. One-step NBT/BCIP (nitro-blue tetrazolium chloride/5-bromo-4-chloro-3’-indolyphosphate p-toluidine salt) (Pierce Chemical Co.) was then added and the beads observed under a low-power microscope until some of the beads had turned a dark purple color. The beads were washed with PBS twice, followed by 1% acetic acid and a final wash in water. Dark purple-black beads were removed using a small-bore pipette and subjected to amino acid sequence analysis. […]

AsPC-1 xenografts = assay: AsPC-1 xenograft tumor growth in athymic nude mice; format: in vivo, athymic nude (Foxn1nu/Foxn1nu) mice; conditions: 10 mg/kg subcutaneously every three days; day 36
Procedure: Athymic nude (Foxn1^nu/Foxn1^nu) mice were purchased from the Jackson Laboratory (Bar Harbor, Maine) and housed in pathogen-free conditions. AsPC-1 cells (1 × 10^7) were injected subcutaneously into the flanks of 4- to 6-week-old mice (n=3/group). Tumors were measured using a caliper and the volume was calculated as (length × width^2) × 0.5. Once tumors achieved an average size of ~100 mm^3, mice were injected subcutaneously with selected D-peptides at a dose of 10 mg/kg. Treatments were continued every three days until day 36.

plasma gelsolin = target: T2, plasma gelsolin (UniProt P06396 28-782); assay: SPR; who was immobilised and the conditions not given; conditions: both partners purified
T2 construct: plasma gelsolin (pGSN), the extracellular form of gelsolin; The source is told for the ELISA only; also called pGSN; source: bought: Abcam (ab233671)
T2 sequence (P06396 28-782): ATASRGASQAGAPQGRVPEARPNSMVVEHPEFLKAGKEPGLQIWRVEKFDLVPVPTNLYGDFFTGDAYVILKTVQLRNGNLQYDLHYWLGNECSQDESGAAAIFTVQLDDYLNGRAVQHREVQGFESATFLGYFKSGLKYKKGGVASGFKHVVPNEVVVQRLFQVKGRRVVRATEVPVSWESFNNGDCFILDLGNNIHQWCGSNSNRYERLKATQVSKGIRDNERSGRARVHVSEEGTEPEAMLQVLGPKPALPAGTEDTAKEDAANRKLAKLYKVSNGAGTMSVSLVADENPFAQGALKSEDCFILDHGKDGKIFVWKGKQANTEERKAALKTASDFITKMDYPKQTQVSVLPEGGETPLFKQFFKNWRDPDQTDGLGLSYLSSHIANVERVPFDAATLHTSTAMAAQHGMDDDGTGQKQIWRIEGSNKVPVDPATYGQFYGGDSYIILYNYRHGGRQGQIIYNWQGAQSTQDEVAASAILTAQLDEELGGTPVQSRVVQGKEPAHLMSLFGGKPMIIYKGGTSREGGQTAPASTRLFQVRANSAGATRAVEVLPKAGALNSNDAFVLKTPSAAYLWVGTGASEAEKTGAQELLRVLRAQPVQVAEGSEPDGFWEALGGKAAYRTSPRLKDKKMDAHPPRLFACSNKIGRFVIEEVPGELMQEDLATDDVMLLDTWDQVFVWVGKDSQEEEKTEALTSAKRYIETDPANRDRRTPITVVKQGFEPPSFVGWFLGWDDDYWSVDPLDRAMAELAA

Kd (DCLK1 isoform 4 [1]): ~100 nM
binding to DCLK1 isoform 4 across the gradient (DCLK1 isoform 4 [2]): consistent, linear binding
Molecule: Gelsolin

Molecule: FGF19: candidate DCLK1 interacting protein known to be extracellularly localized (969-FG-025; Bio-Techne)
binding to DCLK1 isoform 4 (DCLK1 isoform 4 [3]): bound to DCLK1 isoform 4 similarly to pGSN

Molecule: NCC(=O)N[C@H](Cc1c[nH]c2ccccc12)C(=O)N[C@H](Cc1ccc(O)cc1)C(=O)NCC(=O)N[C@H](Cc1c[nH]c2ccccc12)C(=O)NCC(=O)N[C@H](CC(=O)O)C(=O)N[C@H](CC(=O)O)C(=O)O [D-peptide 1] (H-G[dW][dY]G[dW]G[dD][dD]-OH)
inhibition of CBT-15 binding to DCLK1 isoform 4 (DCLK1 isoform 4 / CBT-15): None of these D-peptides significantly inhibited CBT-15 binding
colony formation [4]: significantly reduced colony formation at low micromolar concentrations
cross-reactivity to isoform 1 (DCLK1 isoform 1): minimal cross-reactivity to isoform 1
effect on pGSN binding to DCLK1 isoform 4 (DCLK1 isoform 4-pGSN): did not block the PPI interaction
improvement of pGSN binding to DCLK1 (DCLK1 isoform 4-pGSN): seemed to improve pGSN binding to DCLK1
colony formation [5]: significantly reduced colony formation at low micromolar concentrations
Kd [6]: 396 nM
specific binding to isoform 4 (DCLK1 isoform 4 [7]): binds specifically to DCLK1 isoform 4
necrosis or apoptosis in tumors (AsPC-1 xenografts): without inducing necrosis or apoptosis

Kd (plasma gelsolin): ~100 nM
B1: human DCLK1 isoform 4 (β-short) (natural protein, UniProt O15075-4 1-433, looked up)
chain: MLELIEVNGTPGSQLSTPRSGKSPSPSPTSPGSLRKQRSSQHGGSSTSLASTKVCSSMDENDGPGEEVSEEGFQIPATITERYKVGRTIGDGNFAVVKECVERSTAREYALKIIKKSKCRGKEHMIQNEVSILRRVKHPNIVLLIEEMDVPTELYLVMELVKGGDLFDAITSTNKYTERDASGMLYNLASAIKYLHSLNIVHRDIKPENLLVYEHQDGSKSLKLGDFGLATIVDGPLYTVCGTPTYVAPEIIAETGYGLKVDIWAAGVITYILLCGFPPFRGSGDDQEVLFDQILMGQVDFPSPYWDNVSDSAKELITMMLLVDVDQRFSAVQVLEHPWVNDDGLPENEHQLSVAGKIKKHFNTGPKPNSTAAGVSVIATTALDKERQVFRRRRNQDVRSRYKAQPAPPELNSESEDYSPSSSETVRSPNSPF
modifications: biotin (NHS-LC-biotin) in the library screen only
notes: human DCLK1 isoform 4 (β-short, NP_001182345); also called Doublecortin-like kinase 1 isoform 4; beta-short; source: E. coli BL21(DE3) pLPP with the pET19-DCLK1 isoform 4 plasmid, purified
